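Test compounds were applied to cells in 96-well plates for 48 hours at 5 doses. GI50 marks 50% less growth.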 Activity calls are given as the source filed them. Cut-off read from the data, not from the text of the source: active = GI50 up to about 1.1 µM and inactive = higher. Residues, ends and D or L forms follow the SMILES beside them. *: point of attachment. Fmoc = O=C(OCC1c2ccccc2-c2ccccc21)*; Boc = CC(C)(C)OC(=O)*
How the values were obtained:
Assay in all cases: NCI-60 cell line screen, 48 h
SW-620 = tested on: SW-620
MDA-N = tested on: MDA-N
MCF7 = tested on: MCF7
HL-60 = tested on: HL-60
SK-OV-3 = tested on: SK-OV-3
RPMI-8226 = tested on: RPMI-8226
COLO 205 = tested on: COLO 205
IGROV-1 = tested on: IGROV-1
TK-10 = tested on: TK-10
PC-3 = tested on: PC-3
CCRF-CEM = tested on: CCRF-CEM
NCI-H460 = tested on: NCI-H460
786-0 = tested on: 786-0
SNB-19 = tested on: SNB-19
HT-29 = tested on: HT-29
HOP-62 = tested on: HOP-62
UACC-257 = tested on: UACC-257
SK-MEL-2 = tested on: SK-MEL-2
NCI-H522 = tested on: NCI-H522
A498 = tested on: A498

| SMILES | GI50 (SW-620) | GI50 (MDA-N) | GI50 (MCF7) | GI50 (HL-60) | GI50 (SK-OV-3) | GI50 (RPMI-8226) | GI50 (COLO 205) | GI50 (IGROV-1) | GI50 (TK-10) | GI50 (PC-3) | GI50 (CCRF-CEM) | GI50 (NCI-H460) | GI50 (786-0) | GI50 (SNB-19) | GI50 (HT-29) | GI50 (HOP-62) | GI50 (UACC-257) | GI50 (SK-MEL-2) | GI50 (NCI-H522) | GI50 (A498) |
| --- | --- | --- | --- | --- | --- | --- | --- | --- | --- | --- | --- | --- | --- | --- | --- | --- | --- | --- | --- | --- |
| CC(C)(C)OC(=O)NCCCCC(NC(=O)C(Cc1c[nH]c2ccccc12)NC(=O)OCC1c2ccccc2-c2ccccc21)C(=O)N1CCCC1C(=O)NCC(N)=O (centres undefined) (Fmoc-WK(Boc)PG-NH2; configuration not given here) | > 100 µM (inactive) | > 100 µM (inactive) | > 100 µM (inactive) | > 100 µM (inactive) | 1.59 µM (inactive) | > 100 µM (inactive) | > 100 µM (inactive) | > 100 µM (inactive) | > 100 µM (inactive) | > 100 µM (inactive) | > 100 µM (inactive) | > 100 µM (inactive) | > 100 µM (inactive) | > 100 µM (inactive) | > 100 µM (inactive) | > 100 µM (inactive) | > 100 µM (inactive) | > 100 µM (inactive) | > 100 µM (inactive) |  |
| CCOC1c2cc(OC)c(OC)cc2-c2ccc3ccccc3c2N1C (centres undefined) | 8.65 µM (inactive) | 10.6 µM (inactive) | 12.4 µM (inactive) | 44.1 µM (inactive) | 22 µM (inactive) | 10.7 µM (inactive) | 6.05 µM (inactive) | 19.2 µM (inactive) | 31.6 µM (inactive) | 5.15 µM (inactive) | 18 µM (inactive) | 12.2 µM (inactive) | 16.8 µM (inactive) | 9.86 µM (inactive) | 10.9 µM (inactive) | 15.7 µM (inactive) | 16.6 µM (inactive) | 13.9 µM (inactive) | 3.02 µM (inactive) |  |
| CCOC(=O)/C=C/CCO[Si](C)(C)C(C)(C)C | > 100 µM (inactive) | > 100 µM (inactive) | 97.5 µM (inactive) |  | > 100 µM (inactive) | > 100 µM (inactive) | > 100 µM (inactive) | > 100 µM (inactive) | > 100 µM (inactive) | > 100 µM (inactive) | > 100 µM (inactive) | > 100 µM (inactive) | > 100 µM (inactive) | > 100 µM (inactive) | > 100 µM (inactive) | > 100 µM (inactive) | > 100 µM (inactive) | > 100 µM (inactive) | > 100 µM (inactive) | > 100 µM (inactive) |
| O=[N+]([O-])c1ccc2c(c1)=[N+]([O-])C1(CCCCC1)[N+]=2[O-] | 15.9 µM (inactive) | 18 µM (inactive) | 16.1 µM (inactive) | 3.27 µM (inactive) | 22.5 µM (inactive) | 10.2 µM (inactive) | 12.1 µM (inactive) | 20.4 µM (inactive) | 13.3 µM (inactive) | 17.5 µM (inactive) | 3.36 µM (inactive) | 18.8 µM (inactive) | 11.5 µM (inactive) | 36.4 µM (inactive) | 19.5 µM (inactive) | 17.1 µM (inactive) | 15.1 µM (inactive) | 22.1 µM (inactive) |  |  |
| CN1C(=O)C(=CNc2ccccc2Cl)C(=O)N(C)C1=O | > 100 µM (inactive) | > 100 µM (inactive) | 24 µM (inactive) |  | 40.8 µM (inactive) | 16.9 µM (inactive) | > 100 µM (inactive) | > 100 µM (inactive) | > 100 µM (inactive) | 20.2 µM (inactive) | 14.6 µM (inactive) | 15.5 µM (inactive) | 18.5 µM (inactive) | 23.8 µM (inactive) | > 100 µM (inactive) | 19.8 µM (inactive) | > 100 µM (inactive) | 19.2 µM (inactive) | > 100 µM (inactive) | > 100 µM (inactive) |
| COc1cc(C2c3cc4c(cc3OC(C)(O)C2C)OCO4)cc(OC)c1OC (centres undefined) | 0.349 µM (active) | 0.0555 µM (active) | 0.375 µM (active) | 0.182 µM (active) |  | 0.237 µM (active) | 0.49 µM (active) | 0.625 µM (active) |  | 0.306 µM (active) | 0.406 µM (active) | 0.406 µM (active) | 0.708 µM (active) | 0.342 µM (active) | 0.344 µM (active) | 0.335 µM (active) | 65.2 µM (inactive) |  | 0.235 µM (active) | 13.9 µM (inactive) |
| C1CCSCCCCSCCCCSCCCCSC1 | > 100 µM (inactive) | > 100 µM (inactive) | > 100 µM (inactive) |  | > 100 µM (inactive) | > 100 µM (inactive) | > 100 µM (inactive) | > 100 µM (inactive) | > 100 µM (inactive) | > 100 µM (inactive) |  | > 100 µM (inactive) | > 100 µM (inactive) | > 100 µM (inactive) | > 100 µM (inactive) | > 100 µM (inactive) | > 100 µM (inactive) | > 100 µM (inactive) | > 100 µM (inactive) | > 100 µM (inactive) |
| COc1ccc(N2C(=O)CC(=O)N(C(=O)COc3ccc(OCC(=O)N4C(=O)CC(=O)N(c5ccc(OC)cc5)C4=S)cc3)C2=S)cc1 | 40.1 µM (inactive) | 37.8 µM (inactive) | 31.1 µM (inactive) |  | 29.2 µM (inactive) | 19.6 µM (inactive) | 18.9 µM (inactive) | 47.9 µM (inactive) | 44.3 µM (inactive) | 41 µM (inactive) |  | 25.7 µM (inactive) | 36.5 µM (inactive) | 40.3 µM (inactive) | 47.8 µM (inactive) |  | 43.9 µM (inactive) | 23.9 µM (inactive) | 35.5 µM (inactive) | 61.7 µM (inactive) |
| CC(=O)Oc1cc2c[n+](C)c3c4cc(OC(C)=O)c(OC(C)=O)cc4ccc3c2cc1OC(C)=O | 3.31 µM (inactive) | 5.51 µM (inactive) | 3.17 µM (inactive) |  | 4.32 µM (inactive) | > 20 µM (inactive) | 6.5 µM (inactive) | 2.49 µM (inactive) | > 100 µM (inactive) | 4.07 µM (inactive) |  | 4.93 µM (inactive) | 1.59 µM (inactive) | 2.3 µM (inactive) | 2.72 µM (inactive) | 3.71 µM (inactive) | 14.5 µM (inactive) |  | 0.647 µM (active) | 7.5 µM (inactive) |
| C/C(=C\c1ccccn1)c1ccccn1 |  | > 100 µM (inactive) | > 100 µM (inactive) |  | > 100 µM (inactive) | > 100 µM (inactive) | > 100 µM (inactive) | > 100 µM (inactive) | > 100 µM (inactive) | > 100 µM (inactive) |  | > 100 µM (inactive) | > 100 µM (inactive) | > 100 µM (inactive) | > 100 µM (inactive) | > 100 µM (inactive) | > 100 µM (inactive) | > 100 µM (inactive) | > 100 µM (inactive) | > 100 µM (inactive) |
| C=C1CC(C)(COc2ccc3c(C)c(Cl)c(=O)oc3c2)OC1=O (centres undefined) | 0.461 µM (active) | 0.762 µM (active) | 1.24 µM (inactive) | 0.12 µM (active) | 4.88 µM (inactive) | 0.391 µM (active) | 0.729 µM (active) | 1.76 µM (inactive) | 0.942 µM (active) | 2.52 µM (inactive) | 0.331 µM (active) | 6.97 µM (inactive) | 1.35 µM (inactive) | 12.9 µM (inactive) | 0.984 µM (active) | 10.3 µM (inactive) | 1.15 µM (inactive) | 1.44 µM (inactive) | 0.632 µM (active) |  |
